Laboratory results: patent publication US20260216348A1, “IRAK DEGRADATION AGENT AND USE THEREOF” (Increland, priority 2023, published 2026)

Legend:
[1] = system: LPS/IL-1β-induced IL-6 secretion in human peripheral blood mononuclear cells (PBMCs); assay: Inhibition of LPS/IL-1β-induced IL-6 secretion in human PBMCs (IL-6 ELISA); type: cell-based; settings: PBMC, LPS 10 ng/mL + IL-1β 20 ng/mL, 24 h pre-incubation, 20 h stimulation
Experimental: This experiment was carried out in RPMI 1640 medium containing 10% FBS and 1% penicillin/streptomycin, with each of the compounds at an initial test concentration of 1 μM.
The compound was dissolved in DMSO to prepare a stock solution, which was serially diluted into some working solutions with a 5-fold concentration gradient using the culture medium and then added to a 96-well plate at 10 μL per well. PBMCs (Batch No.: P122101102C; Milecell Biotechnology Inc.) were counted and diluted to a cell concentration of about 1.3×10^6 cells/mL, and then added to the aforementioned compound-containing 96-well plate at 150 μL per well. The system was mixed well and incubated in a 5% CO2 incubator at 37° C. for 24 h. Then 5 μL of LPS (final concentration: 10 ng/mL) and 5 μL of IL-1β (final concentration: 20 ng/mL) were added to each well, respectively, and the culture was continued for 20 h in a 5% CO2 incubator at 37° C. After incubation, the 96-well plate was centrifuged at 2000 rpm for 4 min. The supernatant was collected and diluted 200-fold, then detected using an IL-6 ELISA kit. The OD450 values were read, and converted to IL-6 concentrations based on a standard curve. The dose-response curves were fitted using GraphPad 8.0 to calculate the IC50 values.

[2] = molecular target: T1, IRAK4 (Homo sapiens, UniProt Q9NWZ3); assay: IRAK4 protein degradation in THP1 cells (Western blot); type: cell-based; settings: THP-1 cells, 24 h
T1 construct: Effect of the Compounds on IRAK4 Protein Degradation in THP1 Cells; endogenous in cells; host or cells: THP-1 cells
T1 sequence (Q9NWZ3 1-460): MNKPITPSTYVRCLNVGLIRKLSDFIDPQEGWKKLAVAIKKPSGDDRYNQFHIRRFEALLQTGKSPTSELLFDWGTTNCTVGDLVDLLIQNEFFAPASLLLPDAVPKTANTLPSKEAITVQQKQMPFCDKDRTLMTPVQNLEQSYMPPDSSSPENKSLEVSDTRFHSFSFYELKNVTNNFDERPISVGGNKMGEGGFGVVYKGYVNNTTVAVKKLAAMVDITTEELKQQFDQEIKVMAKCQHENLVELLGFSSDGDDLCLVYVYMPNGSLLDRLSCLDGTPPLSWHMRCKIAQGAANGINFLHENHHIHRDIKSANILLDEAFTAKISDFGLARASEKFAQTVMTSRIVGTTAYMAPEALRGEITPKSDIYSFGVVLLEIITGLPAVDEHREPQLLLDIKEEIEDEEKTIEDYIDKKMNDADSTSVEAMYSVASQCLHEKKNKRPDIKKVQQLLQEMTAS
Experimental: THP-1 cells were seeded into a 96-well cell culture plate, with 2×10^5 cells and 90 μL of culture medium per well. The cell culture plate was cultured in an incubator with 5% CO2 at 37° C. overnight. The compound was dissolved in DMSO to prepare a stock solution, which was serially diluted into a series of working solutions with a 5-fold concentration gradient using the culture medium and then added to the aforementioned 96-well plate at 10 μL per well. The cell culture plate was further incubated for 24 h in a 5% CO2 incubator at 37° C. After incubation, the 96-well plate was centrifuged and the supernatant was discarded, followed by adding 40 μL of cell lysis buffer containing […]/phosphatase inhibitors to each well for sufficient lysis on an ice bath. Protein quantification was performed using the BCA protein quantification kit, followed by the preparation of Western blot samples. […] After electrophoresis, protein transfer was performed using a PVDF membrane under ice bath conditions for 1 h. After the transfer was completed, the PVDF membrane was blocked with gentle shaking in 5% skim milk at room temperature for 1 h. After blocking, the PVDF membrane was incubated with the primary antibody overnight with gentle shaking at 4° C. The PVDF membrane was washed 3 times with TBST, then the secondary antibody was added and incubated for 1 h with gentle shaking at room temperature, followed by washing of the PVDF membrane with TBST for 3 times. After the washes were completed, the chemiluminescent substrate was added; the PVDF membrane was scanned using a Clinx imager, semi-quantitative analysis was performed with ImageJ software, and the DC50 was calculated using GraphPad Prism 8.0.

| Structure (SMILES) | IC50 [1] [nM] | DC50 [2] [nM] |
| --- | --- | --- |
| CN(C)c1cc2nn([C@H]3CC[C@H](CN4CC[C@H](n5cc6cc(N7CCC(=O)NC7=O)c(F)cc6n5)[C@H](F)C4)CC3)cc2cc1NC(=O)c1cnn2cccnc12 [TM-130] | 5.12 | 4.26 |
| CN(C)c1cc2nn([C@H]3CC[C@H](CN4CC[C@H](n5cc6cc(N7CCC(=O)NC7=O)ccc6n5)[C@@H](F)C4)CC3)cc2cc1NC(=O)c1cnn2cccnc12 [TM-17] | 3.37 | 1.19 |
| CN(C)c1cc2nn([C@H]3CC[C@H](CN4CC[C@@H](n5cc6cc(N7CCC(=O)NC7=O)ccc6n5)[C@H](F)C4)CC3)cc2cc1NC(=O)c1cnn2cccnc12 [TM-16] | 4.59 | 0.41 |
| CN(C)c1cc2nn([C@H]3CC[C@H](CN4CC[C@H](n5cc6cc(F)c(C7CCC(=O)NC7=O)cc6n5)[C@@H](F)C4)CC3)cc2cc1C(=O)Nc1cnn2cccnc12 (stereo partly shown) [TM-158] | 14.6 | 1.41 |
| CN(C)c1cc2nn([C@H]3CC[C@H](CN4CC[C@H](n5cc6ccc(C7CCC(=O)NC7=O)cc6n5)[C@@H](F)C4)CC3)cc2cc1NC(=O)c1cnn2cccnc12 (stereo partly shown) [TM-151] | 7.13 | 1.66 |
| CN(C)c1cc2nn(C3CCN(C[C@H]4CC[C@H](n5cc6ccc(C7CCC(=O)NC7=O)cc6n5)CC4)CC3)cc2cc1NC(=O)c1cnn2cccnc12 (stereo partly shown) [TM-5] | 0.26 | 4.62 |
| CN(C)c1cc2nn([C@H]3CC[C@H](CN4CCC(n5cc6cc(F)c(N7CCC(=O)NC7=O)cc6n5)CC4)CC3)cc2cc1NC(=O)c1cnn2cccnc12 [TM-10] | 1.34 | 4 |
| CN(C)c1cc2nn([C@H]3CC[C@H](CN4CC[C@H](n5cc6cc(N7CCC(=O)NC7=O)c(F)cc6n5)[C@@H](F)C4)CC3)cc2cc1NC(=O)c1cnn2cccnc12 [TM-131] | 5.07 | 0.81 |
| CN(C)c1cc2nn([C@H]3CC[C@H](CN4CCC(n5cc6cc(N7CCC(=O)NC7=O)c(F)cc6n5)CC4)CC3)cc2cc1NC(=O)c1cnn2cccnc12 [TM-9] | 2.03 | 5.41 |
| CO[C@H]1CN(C[C@H]2CC[C@H](n3cc4cc(NC(=O)c5cnn6cccnc56)c(N(C)C)cc4n3)CC2)CC[C@H]1n1cc2ccc(N3CCC(=O)NC3=O)cc2n1 [TM-33] | 0.87 | 2.86 |
| CN(C)c1cc2nn([C@H]3CC[C@H](CN4CC[C@H](n5cc6cc(N7CCC(=O)NC7=O)ccc6n5)[C@H](F)C4)CC3)cc2cc1NC(=O)c1cnn2cccnc12 [TM-18] | 3.72 | 1.2 |
| CN(C)c1cc2nn([C@H]3CC[C@H](CN4CCC(N5Cc6ccc(N7CCC(=O)NC7=O)cc6C5=O)CC4)CC3)cc2cc1NC(=O)c1cnn2cccnc12 [TM-143] | 11.9 | 135 |
| CN(C)c1cc2nn(C3CCN(C[C@H]4CC[C@H](n5cc6cc(N7CCC(=O)NC7=O)c(F)cc6n5)CC4)CC3)cc2cc1NC(=O)c1cnn2cccnc12 [TM-51] | 3.14 | 23.3 |
| CO[C@H]1CN(C[C@H]2CC[C@H](n3cc4cc(NC(=O)c5cnn6cccnc56)c(N(C)C)cc4n3)CC2)CC[C@@H]1n1cc2ccc(C3CCC(=O)NC3=O)cc2n1 (stereo partly shown) [TM-166] | 0.89 | 1.58 |
| C[C@@H]1CN(C[C@H]2CC[C@H](n3cc4cc(NC(=O)c5cnn6cccnc56)c(N(C)C)cc4n3)CC2)CC[C@H]1n1cc2ccc(C3CCC(=O)NC3=O)cc2n1 (stereo partly shown) [TM-142] | 0.88 | 0.77 |
| CN(C)c1cc2nn([C@H]3CC[C@H](CN4C[C@@H](F)[C@H](n5cc6ccc(N7CCC(=O)NC7=O)cc6n5)C4)CC3)cc2cc1NC(=O)c1cnn2cccnc12 [TM-200] |  | 1.79 |
| C[C@H]1CN(C[C@H]2CC[C@H](n3cc4cc(NC(=O)c5cnn6cccnc56)c(N(C)C)cc4n3)CC2)CC[C@@H]1n1cc2ccc(N3CCC(=O)NC3=O)cc2n1 [TM-27] | 1.49 | 4.27 |

| Structure (SMILES) | IC50 [1] [nM] | DC50 [2] [nM] |
| --- | --- | --- |
| CN(C)c1cc2nn([C@H]3CC[C@H](CN4CC[C@H](n5cc6ccc(N7CCC(=O)NC7=O)cc6n5)[C@@H](F)C4)CC3)cc2cc1NC(=O)c1cnn2cccnc12 [TM-31] | 3.29 | 4.06 |
| CN(C)c1cc2nn(C3CCC(CN4CCC[C@H](n5cc6cc(N7CCC(=O)NC7=O)ccc6n5)C4)CC3)cc2cc1NC(=O)c1cnn2cccnc12 (stereo partly shown) [TM-204] |  | 1.69 |
| CN(C)c1cc2nn([C@H]3CC[C@H](CN4CC5(CCN(c6nc7ccc(C8CCC(=O)NC8=O)cn7n6)CC5)C4)CC3)cc2cc1NC(=O)c1cnn2cccnc12 (stereo partly shown) [TM-251] | 2.19 | 18.1 |
| CN(C)c1cc2nn([C@H]3CC[C@H](CN4CCCN(c5nc6cc(N7CCC(=O)NC7=O)ccc6s5)CC4)CC3)cc2cc1NC(=O)c1cnn2cccnc12 [TM-59] | 10.9 | 9.64 |
| CN(C)c1cc2nn([C@H]3CC[C@H](CN4CC[C@@H](n5cc6cc(C7CCC(=O)NC7=O)ccc6n5)[C@@H](F)C4)CC3)cc2cc1NC(=O)c1cnn2cccnc12 (stereo partly shown) [TM-156] | 1.17 | 0.32 |
| CN(C)c1cc2nn([C@H]3CC[C@H](CN4CC[C@@H](n5cc6ccc(N7CCC(=O)NC7=O)cc6n5)[C@@H](F)C4)CC3)cc2cc1NC(=O)c1cnn2cccnc12 [TM-29] | 0.88 | 1.13 |
| CN(C)c1cc2nn([C@H]3CC[C@H](CN4CC[C@@H](n5cc6cc(N7CCC(=O)NC7=O)c(F)cc6n5)[C@H](F)C4)CC3)cc2cc1NC(=O)c1cnn2cccnc12 [TM-41] | 3.89 | < 1 |
| CN(C)c1cc2nn([C@H]3CC[C@H](CN4CC[C@H](n5cc6ccc(C7CCC(=O)NC7=O)cc6n5)[C@H](F)C4)CC3)cc2cc1NC(=O)c1cnn2cccnc12 (stereo partly shown) [TM-153] | 6.79 | 0.79 |
| CN(C)c1cc2nn([C@H]3CC[C@H](CN4CC[C@@H](n5cc6cc(N7CCC(=O)NC7=O)ccc6n5)[C@@H](F)C4)CC3)cc2cc1NC(=O)c1cnn2cccnc12 [TM-15] | 4 | 1.41 |
| C[C@H]1CN(C[C@H]2CC[C@H](n3cc4cc(NC(=O)c5cnn6cccnc56)c(N(C)C)cc4n3)CC2)CC[C@@H]1n1cc2ccc(C3CCC(=O)NC3=O)cc2n1 (stereo partly shown) [TM-157] | 1.46 | 1.12 |
| O=C1CCN(c2ccc3cn(C4CCN(C[C@H]5CC[C@H](n6cc7cc(NC(=O)c8cnn9cccnc89)c(N8CCOCC8)cc7n6)CC5)CC4)nc3c2)C(=O)N1 [TM-43] | 8.92 | 4.31 |
| CN(C)c1cc2nn(C3CCN(C[C@H]4CC[C@H](n5cc6cc(C7CCC(=O)NC7=O)ccc6n5)CC4)CC3)cc2cc1NC(=O)c1cnn2cccnc12 (stereo partly shown) [TM-7] | 0.18 | 3.73 |
| CN(C)c1cc2nn([C@H]3CC[C@H](CN4CC[C@H](n5cc6cc(C7CCC(=O)NC7=O)ccc6n5)[C@@H](F)C4)CC3)cc2cc1NC(=O)c1cnn2cccnc12 (stereo partly shown) [TM-168] |  | 1.78 |
| CN(C)c1cc2nn([C@H]3CC[C@H](CN4CCC(c5nc6ccc(N7CCC(=O)NC7=O)cc6o5)CC4)CC3)cc2cc1NC(=O)c1cnn2cccnc12 [TM-186] |  | 0.98 |
| CN(C)c1cc2nn([C@H]3CC[C@H](CN4CCC(c5nc6cc(C7CCC(=O)NC7=O)c(F)cc6o5)CC4)CC3)cc2cc1NC(=O)c1cnn2cccnc12 (stereo partly shown) [TM-147] |  | 11 |
| CN(C)c1cc2nn([C@H]3CC[C@H](CN4C[C@@H]5[C@H](C4)[C@H]5n4cc5ccc(N6CCC(=O)NC6=O)cc5n4)CC3)cc2cc1NC(=O)c1cnn2cccnc12 [TM-182] |  | 3.82 |
| CN(C)c1cc2nn([C@H]3CC[C@H](CN4CC[C@H](F)[C@@H](n5cc6cc(N7CCC(=O)NC7=O)ccc6n5)C4)CC3)cc2cc1NC(=O)c1cnn2cccnc12 [TM-214] |  | 1.21 |
